Assay results from patent publication US7175850B2, “Formulation for topical non-invasive application in vivo” (Idea AG, priority 1998, dated 2007).

Tests used:
[1] = Biodistribution after epicutaneous application (blood, skin); format: in vivo, mice
Experimental: Drug in the Carrier (Transfersome) Suspensions. The formulations used in the biodistribution studies were labelled with the tritiurated corticosteroids purchased from Amersham or ICN. Preparation of the formulations for the use in animals was done by dissolving all lipoids in methanol/chloroform (1/1 v/v) in the appropriate amounts and preparing a dry mixed lipid film under vacuum (≦10 Pa;≧12 h). The use of potentially harmful organic solvents or drying was entirely avoided in the manufacturing of human medications.
In vivo Experiments mainly involved 8–12 weeks old NMRI mice which were kept under standard laboratory conditions (3–5 per suspending cage; standard chew and water ad libitum; 12 h light/dark regime). Stressful or painful manipulations were always carried out under general injection anesthesia.
Biodistribution. The hair at the chosen skin site was trimmed with a pair of scissors to the length of ≦2 mm one day before experimentation. The precise application site on the upper back was marked and the appropriate amount (0.5 μL to 25 μL) and drug formulation was applied with a micro-pipette on the skin. After uniform distribution with the side of the same pipette tip, the application was left to dry.
Blood samples (20 μL) were taken from the tail end with a glass capillary. After 8 hours the animals were killed by heart puncture and the treated skin area was undermined and carefully excised. The outermost layers of the stratum corneum were collected by five tape-strippings. Subsequently, the residual skin tissue and other organ samples were prepared, destained and used for radioactivity counting. For the experiments with porcine skin, […] of full thickness organ was excised and fixed on a wet tissue. Several test areas of 1 cm^2 were then marked and treated further as in vivo.

[2] = Ratio of corticosteroid concentration in blood and inner skin, calculated for humans
Experimental: The area dose will normally be between 0.1 μg cm^−2 and 1 μg cm^−2, for the high and low potency drugs, respectively.

| Structure (SMILES) | Ratio of corticosteroid concentration in the blood and in the 'inner skin' (mouse) ([1]; dose 0.5 μg/cm^−2, measured) | Ratio of corticosteroid concentration in the blood and in the 'inner skin' (mouse) ([1]; dose 4.9 μg/cm^−2, measured) | Ratio of corticosteroid concentration in the blood and in the 'inner skin' (mouse) ([1]; dose 49.5 μg/cm^−2, measured) | Ratio of corticosteroid concentration in the blood and in the 'inner skin' (human) ([2]; dose 1.3 μg/cm^−2) | Ratio of corticosteroid concentration in the blood and in the 'inner skin' (human) ([2]; dose 13.2 μg/cm^−2) | Ratio of corticosteroid concentration in the blood and in the 'inner skin' (human) ([2]; dose 20.6 μg/cm^−2) | Ratio of corticosteroid concentration in the blood and in the 'inner skin' (mouse) ([1]; dose 1.3 μg/cm^−2, measured) | Ratio of corticosteroid concentration in the blood and in the 'inner skin' (mouse) ([1]; dose 13.2 μg/cm^−2, measured) | Ratio of corticosteroid concentration in the blood and in the 'inner skin' (mouse) ([1]; dose 20.6 μg/cm^−2, measured) |
| --- | --- | --- | --- | --- | --- | --- | --- | --- | --- |
| C[C@@H]1C[C@H]2[C@@H]3CCC4=CC(=O)C=C[C@]4(C)[C@@]3(F)[C@@H](O)C[C@]2(C)[C@@]1(O)C(=O)CO [Dexamethasone, dexamethasone] | 0 | 0.1 | 0.25 |  |  |  |  |  |  |
| C[C@]12CCC(=O)C=C1CC[C@@H]1[C@@H]2[C@@H](O)C[C@@]2(C)[C@H]1CC[C@]2(O)C(=O)CO [Hydrocortisone, hydrocortisone] | 0 | 0.012 | 0.015 |  |  |  |  |  |  |
| CC1(C)O[C@@H]2C[C@H]3[C@@H]4CCC5=CC(=O)C=C[C@]5(C)[C@@]4(F)[C@@H](O)C[C@]3(C)[C@]2(C(=O)CO)O1 [Triamcinolone-acetonide, triamcinolone-acetonide] |  |  |  | 0.00007 | 0.00011 | 0.0001 | 0.02 | 0.04 | 0.03 |
